PubChem BioAssay (NCI)
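Growth conditions: 96-well plates. Treatment: test compound, 48 hours, 5 concentrations. Analysis: linear interpolation between bracketing concentrations; unreached endpoints set to highest concentration. GI50 = concentration required for 50% inhibition of growth. Definition used: TGI = concentration required for complete inhibition of growth.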

Tests used:
Experiment in all cases: NCI tumour cell line growth inhibition, 48 h
NCI-H226 lung = test system: NCI-H226 lung
NCI-H23 lung = test system: NCI-H23 lung
NCI-H460 lung = test system: NCI-H460 lung
NCI-H522 lung = test system: NCI-H522 lung
NCI/ADR-RES ovarian = test system: NCI/ADR-RES ovarian
OVCAR-3 ovarian = test system: OVCAR-3 ovarian
OVCAR-5 ovarian = test system: OVCAR-5 ovarian
PC-3 prostate = test system: PC-3 prostate
RPMI-8226 leukemia = test system: RPMI-8226 leukemia
RXF 393 renal = test system: RXF 393 renal
SF-268 CNS = test system: SF-268 CNS
SF-295 CNS = test system: SF-295 CNS
SF-539 CNS = test system: SF-539 CNS
SK-MEL-2 melanoma = test system: SK-MEL-2 melanoma
SK-MEL-28 melanoma = test system: SK-MEL-28 melanoma
SK-MEL-5 melanoma = test system: SK-MEL-5 melanoma
SK-OV-3 ovarian = test system: SK-OV-3 ovarian
SNB-19 CNS = test system: SNB-19 CNS
SNB-75 CNS = test system: SNB-75 CNS
SR leukemia = test system: SR leukemia
SW-620 colon = test system: SW-620 colon
T-47D breast = test system: T-47D breast
TK-10 renal = test system: TK-10 renal
U251 CNS = test system: U251 CNS
UACC-62 melanoma = test system: UACC-62 melanoma
UO-31 renal = test system: UO-31 renal

**Q.** How did the GI50 (NCI-H226 lung) turn out when COc1ccc2cc([C@H](C)C(=O)[Se]CCC#N)ccc2c1 was run?
**A.** 1.56 µM

**Q.** What about the TGI (NCI-H226 lung) of the same compound?
**A.** 3.63 µM

**Q.** What about the GI50 (NCI-H23 lung) of the same compound?
**A.** 2.71 µM

**Q.** What about the TGI (NCI-H23 lung) of the same compound?
**A.** 7.95 µM

**Q.** What about the GI50 (NCI-H460 lung) of the same compound?
**A.** 2.72 µM

**Q.** And the TGI (NCI-H460 lung)?
**A.** 12.1 µM

**Q.** And the GI50 (NCI-H522 lung)?
**A.** 1.48 µM

**Q.** And the TGI (NCI-H522 lung)?
**A.** 2.92 µM

**Q.** And the GI50 (NCI/ADR-RES ovarian)?
**A.** 2 µM

**Q.** What about the TGI (NCI/ADR-RES ovarian) of the same compound?
**A.** 5.21 µM

**Q.** What about the GI50 (OVCAR-3 ovarian) of the same compound?
**A.** 2.39 µM

**Q.** What about the TGI (OVCAR-3 ovarian) of the same compound?
**A.** 5.78 µM

**Q.** What about the GI50 (OVCAR-5 ovarian) of the same compound?
**A.** 2.52 µM

**Q.** And the TGI (OVCAR-5 ovarian)?
**A.** 6.29 µM

**Q.** And the GI50 (PC-3 prostate)?
**A.** 2.7 µM

**Q.** What about the TGI (PC-3 prostate) of the same compound?
**A.** 8.53 µM

**Q.** What about the GI50 (RPMI-8226 leukemia) of the same compound?
**A.** 2.86 µM

**Q.** What about the TGI (RPMI-8226 leukemia) of the same compound?
**A.** 9.32 µM

**Q.** What about the GI50 (RXF 393 renal) of the same compound?
**A.** 1.67 µM

**Q.** What about the TGI (RXF 393 renal) of the same compound?
**A.** 3.22 µM

**Q.** And the GI50 (SF-268 CNS)?
**A.** 2.44 µM

**Q.** What about the TGI (SF-268 CNS) of the same compound?
**A.** 5.11 µM

**Q.** What about the GI50 (SF-295 CNS) of the same compound?
**A.** 1.81 µM

**Q.** What about the TGI (SF-295 CNS) of the same compound?
**A.** 3.55 µM

**Q.** And the GI50 (SF-539 CNS)?
**A.** 1.95 µM

**Q.** What about the TGI (SF-539 CNS) of the same compound?
**A.** 3.75 µM

**Q.** And the GI50 (SK-MEL-2 melanoma)?
**A.** 1.9 µM

**Q.** And the TGI (SK-MEL-2 melanoma)?
**A.** 4.39 µM

**Q.** What about the GI50 (SK-MEL-28 melanoma) of the same compound?
**A.** 2.02 µM

**Q.** What about the TGI (SK-MEL-28 melanoma) of the same compound?
**A.** 4.8 µM

**Q.** And the GI50 (SK-MEL-5 melanoma)?
**A.** 2.02 µM

**Q.** What about the TGI (SK-MEL-5 melanoma) of the same compound?
**A.** 4.07 µM

**Q.** And the GI50 (SK-OV-3 ovarian)?
**A.** 4.49 µM

**Q.** What about the TGI (SK-OV-3 ovarian) of the same compound?
**A.** 7.42 µM

**Q.** And the GI50 (SNB-19 CNS)?
**A.** 1.79 µM

**Q.** And the TGI (SNB-19 CNS)?
**A.** 3.47 µM

**Q.** And the GI50 (SNB-75 CNS)?
**A.** 1.78 µM

**Q.** What about the TGI (SNB-75 CNS) of the same compound?
**A.** 3.59 µM

**Q.** What about the GI50 (SR leukemia) of the same compound?
**A.** 2.13 µM

**Q.** And the TGI (SR leukemia)?
**A.** 12.2 µM

**Q.** And the GI50 (SW-620 colon)?
**A.** 2.91 µM

**Q.** What about the TGI (SW-620 colon) of the same compound?
**A.** 7.97 µM

**Q.** And the GI50 (T-47D breast)?
**A.** 5.43 µM

**Q.** And the TGI (T-47D breast)?
**A.** 28.2 µM

**Q.** And the GI50 (TK-10 renal)?
**A.** 1.63 µM

**Q.** What about the TGI (TK-10 renal) of the same compound?
**A.** 3.09 µM

**Q.** What about the GI50 (U251 CNS) of the same compound?
**A.** 1.7 µM

**Q.** And the TGI (U251 CNS)?
**A.** 3.26 µM

**Q.** And the GI50 (UACC-62 melanoma)?
**A.** 2.52 µM

**Q.** And the TGI (UACC-62 melanoma)?
**A.** 7.52 µM

**Q.** What about the GI50 (UO-31 renal) of the same compound?
**A.** 1.44 µM

**Q.** What about the TGI (UO-31 renal) of the same compound?
**A.** 2.78 µM
